Data: publication PMC10056986 (Pharmaceuticals, 2023)
Where two headings read alike, the source gives them in different places.

Columns and labels:
[1] = in vivo; conditions: female, BALB/c, mouse, po
[2] = system: A/Guangzhou/39715/2014 (H5N6); assay: microbe, parasite or virus in culture; assay type: cell-based, avian influenza virus; conditions: unidentified influenza virus, H5N6, MDCK, read-out: IC50 (mean ± SD)
[3] = system: Influenza virus A/WSN/33 (H1N1); assay: microbe, parasite or virus in culture; assay type: cell-based; conditions: MDCK, read-out: EC50 (mean ± SD)
[4] = target: H1 (Homo sapiens, UniProt P35367); assay: cell-based
Chain of H1 (P35367 whole entry): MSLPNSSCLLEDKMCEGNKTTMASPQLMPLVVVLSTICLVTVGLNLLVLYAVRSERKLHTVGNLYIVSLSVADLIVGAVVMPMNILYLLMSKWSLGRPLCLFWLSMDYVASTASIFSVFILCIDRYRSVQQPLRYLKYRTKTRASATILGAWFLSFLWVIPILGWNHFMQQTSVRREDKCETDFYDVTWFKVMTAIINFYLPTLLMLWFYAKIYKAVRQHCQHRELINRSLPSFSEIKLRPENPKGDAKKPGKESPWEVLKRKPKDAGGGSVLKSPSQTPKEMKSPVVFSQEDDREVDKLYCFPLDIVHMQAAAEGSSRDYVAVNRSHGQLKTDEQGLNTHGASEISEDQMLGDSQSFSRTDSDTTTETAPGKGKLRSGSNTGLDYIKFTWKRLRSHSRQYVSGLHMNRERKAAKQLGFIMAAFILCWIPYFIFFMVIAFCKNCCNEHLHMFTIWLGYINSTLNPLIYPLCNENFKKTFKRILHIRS

[5] = target: Alpha1a (Homo sapiens, UniProt P35348); assay: cell-based
Chain of Alpha1a (P35348 whole entry): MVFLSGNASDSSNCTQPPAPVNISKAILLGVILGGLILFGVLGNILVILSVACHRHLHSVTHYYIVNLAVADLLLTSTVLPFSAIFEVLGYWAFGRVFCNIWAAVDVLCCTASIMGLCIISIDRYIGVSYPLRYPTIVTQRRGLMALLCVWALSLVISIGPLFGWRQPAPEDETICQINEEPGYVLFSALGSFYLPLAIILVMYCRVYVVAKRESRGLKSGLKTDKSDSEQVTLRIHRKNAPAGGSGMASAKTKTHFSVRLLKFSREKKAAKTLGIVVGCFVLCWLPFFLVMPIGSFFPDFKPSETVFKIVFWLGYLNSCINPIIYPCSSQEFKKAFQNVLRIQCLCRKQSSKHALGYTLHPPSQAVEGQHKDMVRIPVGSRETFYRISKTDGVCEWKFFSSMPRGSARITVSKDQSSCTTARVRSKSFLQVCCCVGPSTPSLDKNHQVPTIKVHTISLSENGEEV

[6] = target: M2 (Homo sapiens, UniProt P08172); assay: cell-based
Chain of M2 (P08172 whole entry): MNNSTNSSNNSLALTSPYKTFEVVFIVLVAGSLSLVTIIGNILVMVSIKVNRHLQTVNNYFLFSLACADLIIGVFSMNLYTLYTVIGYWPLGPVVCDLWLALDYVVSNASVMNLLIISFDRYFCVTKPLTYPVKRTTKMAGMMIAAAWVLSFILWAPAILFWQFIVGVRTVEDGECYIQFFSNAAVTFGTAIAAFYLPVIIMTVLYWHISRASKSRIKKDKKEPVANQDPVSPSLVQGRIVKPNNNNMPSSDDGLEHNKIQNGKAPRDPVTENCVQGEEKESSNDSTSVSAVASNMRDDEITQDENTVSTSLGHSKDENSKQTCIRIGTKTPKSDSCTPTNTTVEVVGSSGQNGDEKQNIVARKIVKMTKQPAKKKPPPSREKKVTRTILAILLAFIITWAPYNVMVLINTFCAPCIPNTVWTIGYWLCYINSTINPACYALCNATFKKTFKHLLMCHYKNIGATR

[7] = target: op-delta (Homo sapiens, UniProt P41143); assay: cell-based
Chain of op-delta (P41143 whole entry): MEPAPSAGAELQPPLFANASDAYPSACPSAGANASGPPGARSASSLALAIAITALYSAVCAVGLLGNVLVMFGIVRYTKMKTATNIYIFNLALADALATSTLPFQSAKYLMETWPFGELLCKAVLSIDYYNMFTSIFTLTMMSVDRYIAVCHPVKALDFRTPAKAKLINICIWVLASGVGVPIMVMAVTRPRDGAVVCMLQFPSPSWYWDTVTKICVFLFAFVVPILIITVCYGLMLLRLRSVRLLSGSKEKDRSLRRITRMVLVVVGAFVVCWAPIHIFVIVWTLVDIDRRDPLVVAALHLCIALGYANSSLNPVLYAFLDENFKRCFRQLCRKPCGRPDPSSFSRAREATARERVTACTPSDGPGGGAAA

[8] = target: 5HT1A (Homo sapiens, UniProt P08908); assay: cell-based
Chain of 5HT1A (P08908 whole entry): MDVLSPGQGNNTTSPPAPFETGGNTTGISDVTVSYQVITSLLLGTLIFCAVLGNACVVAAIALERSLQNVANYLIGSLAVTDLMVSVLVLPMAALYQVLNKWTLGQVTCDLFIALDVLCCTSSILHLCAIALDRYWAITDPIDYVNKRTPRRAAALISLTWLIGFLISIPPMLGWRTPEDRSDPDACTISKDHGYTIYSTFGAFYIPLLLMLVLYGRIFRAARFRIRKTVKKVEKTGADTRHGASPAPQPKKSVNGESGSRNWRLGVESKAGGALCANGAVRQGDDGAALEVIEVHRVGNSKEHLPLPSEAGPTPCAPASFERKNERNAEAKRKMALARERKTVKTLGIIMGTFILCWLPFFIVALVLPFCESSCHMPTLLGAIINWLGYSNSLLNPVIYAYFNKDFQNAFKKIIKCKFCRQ

[9] = target: T1, op-kappa (Homo sapiens, UniProt P41145); assay: cell-based
T1 sequence (P41145 whole entry): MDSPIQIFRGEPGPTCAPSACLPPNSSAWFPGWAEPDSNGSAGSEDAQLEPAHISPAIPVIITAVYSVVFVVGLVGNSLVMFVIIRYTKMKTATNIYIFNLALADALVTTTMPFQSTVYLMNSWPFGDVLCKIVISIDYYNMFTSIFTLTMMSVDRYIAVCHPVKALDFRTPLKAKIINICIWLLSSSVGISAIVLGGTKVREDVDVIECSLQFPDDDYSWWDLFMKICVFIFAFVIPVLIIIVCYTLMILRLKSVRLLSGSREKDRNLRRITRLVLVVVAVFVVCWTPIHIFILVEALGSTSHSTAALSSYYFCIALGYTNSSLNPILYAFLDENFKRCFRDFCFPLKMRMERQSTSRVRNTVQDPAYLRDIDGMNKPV

[10] = target: influenza virus polymerase (PB1, PB2, NP, PA from A/California/04/2009 (H1N1) pdm09) (Influenza A virus, UniProt C3W5R8+C3W5R9); assay type: cell-based
[11] = target: TNIK (Homo sapiens, UniProt Q9UKE5); assay: biochemical
[12] = target: D1 (Homo sapiens, UniProt P21728); assay: cell-based
Chain of D1 (P21728 whole entry): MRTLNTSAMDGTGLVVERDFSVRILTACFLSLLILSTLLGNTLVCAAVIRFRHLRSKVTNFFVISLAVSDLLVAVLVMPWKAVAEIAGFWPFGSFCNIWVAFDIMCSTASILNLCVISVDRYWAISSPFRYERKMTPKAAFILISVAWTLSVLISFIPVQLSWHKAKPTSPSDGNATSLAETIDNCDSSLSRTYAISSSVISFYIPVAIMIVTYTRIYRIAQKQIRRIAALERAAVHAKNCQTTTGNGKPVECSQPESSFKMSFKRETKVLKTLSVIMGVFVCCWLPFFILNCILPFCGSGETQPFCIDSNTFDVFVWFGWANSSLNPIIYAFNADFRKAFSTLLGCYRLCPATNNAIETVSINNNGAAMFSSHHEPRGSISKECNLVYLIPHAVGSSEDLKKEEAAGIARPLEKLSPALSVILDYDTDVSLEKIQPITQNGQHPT

[13] = system: A/Qingyuan/GIRD01/2017 (H7N9); assay: microbe, parasite or virus in culture; assay type: cell-based, avian influenza virus; conditions: Influenza A virus, H7N9, MDCK, read-out: IC50 (mean ± SD)
[14] = in vivo; conditions: both, beagle, dog
[15] = target: CK1 alpha (Homo sapiens, UniProt P48729); assay: biochemical
Chain of CK1 alpha (P48729 whole entry): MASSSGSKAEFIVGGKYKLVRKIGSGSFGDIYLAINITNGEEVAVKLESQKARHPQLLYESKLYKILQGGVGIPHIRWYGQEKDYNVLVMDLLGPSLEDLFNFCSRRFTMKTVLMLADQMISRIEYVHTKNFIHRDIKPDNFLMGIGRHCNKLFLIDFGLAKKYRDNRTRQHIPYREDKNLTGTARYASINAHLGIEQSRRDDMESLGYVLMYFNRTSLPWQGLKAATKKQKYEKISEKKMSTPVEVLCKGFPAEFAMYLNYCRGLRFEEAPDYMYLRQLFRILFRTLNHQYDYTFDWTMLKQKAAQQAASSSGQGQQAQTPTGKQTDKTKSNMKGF

[16] = system: HBV; assay: microbe, parasite or virus in culture; assay type: cell-based; conditions: Hepatitis B virus, HepG2.2.15, read-out: EC50 for Virus
[17] = system: EV71 Shenzhen/120F1/09; assay: microbe, parasite or virus in culture; assay type: cell-based, human enterovirus 71; conditions: Enterovirus A, EV71, RD, read-out: EC50 for Virus
[18] = target: Alpha2a (Homo sapiens, UniProt P08913); assay: cell-based
Chain of Alpha2a (P08913 whole entry): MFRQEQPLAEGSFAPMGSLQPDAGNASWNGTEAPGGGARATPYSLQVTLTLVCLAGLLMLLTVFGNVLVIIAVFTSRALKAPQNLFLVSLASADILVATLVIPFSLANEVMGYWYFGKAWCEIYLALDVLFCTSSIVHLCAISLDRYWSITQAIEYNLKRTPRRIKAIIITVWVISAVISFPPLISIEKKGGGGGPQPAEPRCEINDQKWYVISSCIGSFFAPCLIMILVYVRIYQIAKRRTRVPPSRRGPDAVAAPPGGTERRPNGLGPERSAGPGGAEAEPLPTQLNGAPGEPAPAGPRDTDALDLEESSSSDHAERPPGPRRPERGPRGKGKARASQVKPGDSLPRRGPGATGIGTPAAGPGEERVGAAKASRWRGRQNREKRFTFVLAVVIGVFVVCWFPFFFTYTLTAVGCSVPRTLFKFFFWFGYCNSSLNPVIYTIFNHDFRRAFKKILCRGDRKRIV

[19] = target: PKA (Homo sapiens, UniProt P17612); assay: biochemical
[20] = target: M3 (Homo sapiens, UniProt P20309); assay: cell-based
Chain of M3 (P20309 whole entry): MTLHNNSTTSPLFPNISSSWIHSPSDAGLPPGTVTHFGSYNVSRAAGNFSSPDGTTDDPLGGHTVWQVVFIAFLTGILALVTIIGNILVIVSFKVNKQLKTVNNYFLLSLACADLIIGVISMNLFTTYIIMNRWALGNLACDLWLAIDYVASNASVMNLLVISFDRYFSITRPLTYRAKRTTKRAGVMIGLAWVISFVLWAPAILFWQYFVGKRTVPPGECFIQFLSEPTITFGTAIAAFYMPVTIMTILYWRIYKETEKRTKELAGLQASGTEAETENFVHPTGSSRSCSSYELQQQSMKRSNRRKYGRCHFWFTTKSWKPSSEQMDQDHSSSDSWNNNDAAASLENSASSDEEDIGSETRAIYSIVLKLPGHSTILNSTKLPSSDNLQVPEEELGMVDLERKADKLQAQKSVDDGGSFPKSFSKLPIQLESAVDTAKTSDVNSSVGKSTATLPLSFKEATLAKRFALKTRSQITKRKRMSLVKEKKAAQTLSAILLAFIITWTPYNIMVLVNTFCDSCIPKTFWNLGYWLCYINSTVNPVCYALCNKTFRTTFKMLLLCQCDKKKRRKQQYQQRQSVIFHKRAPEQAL

[21] = system: Influenza virus A/Weiss/43(H1N1); assay: microbe, parasite or virus in culture; assay type: cell-based; conditions: H1N1, MDCK, read-out: EC50 (mean ± SD)
[22] = system: AD2; assay type: cell-based, human
[23] = target: T2, Beta1 (Homo sapiens, UniProt P08588); assay: cell-based
T2 sequence (P08588 whole entry): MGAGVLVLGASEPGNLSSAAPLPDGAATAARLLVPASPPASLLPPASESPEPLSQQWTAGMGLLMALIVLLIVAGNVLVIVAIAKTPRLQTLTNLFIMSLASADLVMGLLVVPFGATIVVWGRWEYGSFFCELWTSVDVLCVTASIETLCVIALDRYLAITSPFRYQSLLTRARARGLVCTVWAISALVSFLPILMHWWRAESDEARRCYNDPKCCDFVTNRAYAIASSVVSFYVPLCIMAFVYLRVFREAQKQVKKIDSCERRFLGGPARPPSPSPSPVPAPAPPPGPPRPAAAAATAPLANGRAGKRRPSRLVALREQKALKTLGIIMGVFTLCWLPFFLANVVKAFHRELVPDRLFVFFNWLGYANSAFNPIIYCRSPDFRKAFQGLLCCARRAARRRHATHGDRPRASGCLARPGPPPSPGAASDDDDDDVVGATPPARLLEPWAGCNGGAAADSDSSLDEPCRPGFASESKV

[24] = target: T1, op-kappa; assay: cell-based; remark: listed apart in the source
[25] = system: 22 GPCR targets; assay type: cell-based, human; conditions: read-out: EC50 (agonistic activity)
[26] = system: Influenza virus A/PR/8/34 (H1N1); assay: microbe, parasite or virus in culture; assay type: cell-based; conditions: H1N1|PR/8, MDCK, read-out: EC50 (mean ± SD)
[27] = system: A/Anhui/01/2013 (H7N9); assay: microbe, parasite or virus in culture; assay type: cell-based, avian influenza virus; conditions: Influenza A virus, H7N9, MDCK, read-out: IC50 (mean ± SD)
[28] = in vitro
[29] = system: influenza A virus WSN/33 (H1N1); set-up: species or system BALB/c mice; conditions: mouse, in vivo
[30] = target: T2, Beta1; assay: cell-based; remark: listed apart in the source
[31] = 10,000 nM, read-out: Inhibition at Maximum Concentration (%)

For `O=C(O)[C@H]1C2CCC(CC2)[C@@H]1Nc1nc(-c2n[nH]c3ncc(F)cc23)nc(C2CC2)c1F` [ZSP1273], the AUC(0-t) ([1]; 3 mg/kg) was 1040 ng·h/mL, the Cmax ([1]; 3 mg/kg) was 439 ng/mL and the AUC(0-t) ([1]; 10 mg/kg) was 6190 ng·h/mL. For the same molecule, the Cmax ([1]; 10 mg/kg) was 3010 ng/mL, the AUC(0-t) ([1]; 30 mg/kg) was 56000 ng·h/mL and the Cmax ([1]; 30 mg/kg) was 23700 ng/mL. The IC50 [2] was 0.000245 ± 3e-05 µM, the EC50 [3] was 0.063 ± 0.028 nM and the IC50 [4] was > 10 µM. The inhibition at 10 µM [4, 31] was 13.4%, the IC50 [5] was > 10 µM and the inhibition at 10 µM [5, 31] was -56.5%. The IC50 [6] was > 10 µM, the inhibition at 10 µM [6, 31] was -55.7% and the EC50 [7] was > 12 µM. For the same molecule, the “Activity at Maximum Concentration (%)” value ([7]; 12,000 nM) was −10.64%, the IC50 [8] was > 10 µM and the inhibition at 10 µM [8, 31] was 19%. For the same molecule, the IC50 [9] was > 10 µM, the inhibition at 10 µM [9, 31] was -27.8% and the IC50 ([10]; read-out: IC50, Mean ± SEM) was 0.000562 ± 0.000116 µM. The IC50 ([10]; read-out: IC50, experiment 1) was 0.000533 µM, the IC50 ([10]; read-out: IC50, experiment 2) was 0.000464 µM and the IC50 ([10]; read-out: IC50, experiment 3) was 0.00069 µM. The IC50 [11] was > 10 µM, the IC50 [12] was > 10 µM and the inhibition at 10 µM [12, 31] was -16.7%. The IC50 [13] was 0.000777 ± 0.000427 µM, the AUC(0-t) ([14]; iv, 1 mg/kg) was 791 ± 329 ng·h/mL and the Vd ([14]; iv, 1 mg/kg) was 0.47 ± 0.0848 L/kg. For the same molecule, the clearance ([14]; iv, 1 mg/kg) was 25.8 ± 7.6 mL/min/kg, the half-life ([14]; iv, 1 mg/kg) was 27.4 ± 10.1 min and the AUC(0-t) ([14]; po, 1 mg/kg) was 211 ± 62.4 ng·h/mL. The Cmax ([14]; po, 1 mg/kg) was 292 ± 78.2 ng/mL, the Tmax ([14]; po, 1 mg/kg) was 27.5 ± 6.12 min and the bioavailability ([14]; po, 1 mg/kg) was 26.7%. It also gave an AUC(0-t) ([14]; po, 5 mg/kg) of 1210 ± 641 ng·h/mL, a Cmax ([14]; po, 5 mg/kg) of 1450 ± 800 ng/mL and a Tmax ([14]; po, 5 mg/kg) of 32.5 ± 14.8 min. For the same molecule, the AUC(0-t) ([14]; po, 15 mg/kg) was 5030 ± 1960 ng·h/mL, the Cmax ([14]; po, 15 mg/kg) was 5800 ± 2150 ng/mL and the Tmax ([14]; po, 15 mg/kg) was 27.5 ± 17.5 min. For the same molecule, the IC50 [15] was > 10 µM, the EC50 [16] was > 10 µM and the EC50 [17] was > 10 µM. For the same molecule, the EC50 [18] was > 12 µM, the “Activity at Maximum Concentration (%)” value ([18]; 12,000 nM) was −2.1% and the IC50 [19] was > 10 µM. The IC50 [20] was > 10 µM, the inhibition at 10 µM [20, 31] was -4.78% and the EC50 [21] was 0.012 ± 0.002 nM. The IC50 [22] was > 10 µM, the “Inhibition at Maximum Concentration (%)” value ([22]; 10,000 nM) was 43.84% and the EC50 [23] was > 12 µM. The “Activity at Maximum Concentration (%)” value ([23]; 12,000 nM) was 0.54%, the EC50 [24] was > 12 µM and the “Activity at Maximum Concentration (%)” value ([24]; 12,000 nM) was −18.96%. The EC50 [25] was > 12 µM, the EC50 [26] was 0.042 ± 0.01 nM and the IC50 [27] was 0.000627 ± 0.000312 µM. The CC50 [28] was > 10 µM, the “animals died (of n = 8)” value [29] was “one” and the “day on which body weight of surviving mice began to recover” value [29] was 8 days. For the same molecule, the “day on which weight of surviving mice increased gradually” value [29] was 6th, the “mice died (of n = 8)” value [29] was “no mice died” and the survival rate [29] was 100%. For the same molecule, the IC50 [30] was > 10 µM and the inhibition at 10 µM [30, 31] was -22.7%.
